Test [1] deals with chloroquine-resistant K1 strain of P. falciparum. Description: In vitro antimalarial semiautomated microdilution assay ([3H]-hypoxanthine incorporation), K1 strain. It is filed as cell-based, Plasmodium falciparum. To be noted: Plasmodium falciparum. The protocol: (§1) Various OZ compounds were tested by the semiautomated microdilution assay against intraerythrocytic forms of Plasmodium falciparum derived from asynchronous stock cultures.
(§2) Fifty percent inhibitory concentration (IC50) were estimated by Logit regression analysis.

Test [2] deals with chloroquine-sensitive NF54 strain of P. falciparum. Description: In vitro antimalarial semiautomated microdilution assay ([3H]-hypoxanthine incorporation), NF54 strain. It is filed as cell-based, Plasmodium falciparum. Conditions: Plasmodium falciparum. The protocol: as §1, §2
For orientation: Dilution methods test growth across graded concentrations, often in twofold steps.

The subject of test [3] is ANKA strain of P. berghei. As to the kind of experiment: Single dose STI in vivo screen in infected mice. To be noted: for Survival (days) 3 mg/kg SSV po / Activity (%) 3 mg/kg SSV po: single 3 mg/kg po in SSV; for Activity (%) 3 mg/kg SSV po / Activity (%) 10 mg/kg SSV po / Activity (%) 10 mg/kg po / Activity (%) 10 mg/kg sc: percent reduction in parasitemia on day 3; for Survival (days) 10 mg/kg SSV po: single 10 mg/kg po in SSV; for Survival (days) 10 mg/kg SSV po / Survival (days) 10 mg/kg po / Survival (days) 10 mg/kg sc: untreated 6-7 days; for Activity (%) 10 mg/kg SSV po: single 10 mg/kg po in standard suspending vehicle (SSV) on day 1 post-infection; for Survival (days) 10 mg/kg po: single 10 mg/kg po in 3% ethanol and 7% Tween 80; for Activity (%) 10 mg/kg po: single 10 mg/kg po in 3% ethanol and 7% Tween 80 on day 1 post-infection; for Survival (days) 10 mg/kg sc: single 10 mg/kg sc in 3% ethanol and 7% Tween 80; for Activity (%) 10 mg/kg sc: single 10 mg/kg sc in 3% ethanol and 7% Tween 80 on day 1 post-infection. More on the design: species or system Plasmodium berghei. The protocol: In the single dose STI in vivo screen, Moro SPF or NMRI mice infected with the ANKA strain of P. berghei (groups of three mice) were treated on day one post-infection with trioxolanes dissolved or suspended in 3% ethanol and 7% Tween 80. […] SSV consists of 0.5% w/v CMC, 0.5% v/v benzyl alcohol, 0.4% v/v Tween 80, and 0.9% w/v sodium chloride in water. Antimalarial activity was measured by percent reduction in parasitemia on day three post-infection and survival times compared to an untreated control group. Survival to day 30 post-infection is considered to be a cure. […] Other factors influencing antimalarial activity include the stability of carbon radicals formed by β-scission subsequent to the initial electron transfer to the peroxide bond and the influence of steric effects remote from the peroxide bond on the interactions between carbon radicals and potential drug targets.
Moro NMRI male mice (Fu Albino specific pathogen free) weighing 18±2 g were infected intravenously (i.v.) with 2×10^7 P. berghei ANKA strain-infected erythrocytes from donor mice on day 0 of the experiment. From donor mice with circa 30% parasitemia, heparinized blood was taken and diluted in physiological saline to 10^8 parasitized erythrocytes per ml. An aliquot (0.2 ml) of this suspension was injected i.v. into experimental and control groups of mice. […] Throughout the experiments, mice were kept in groups of three or five animals in Makrolon type II cages in an air-conditioned animal room at 22 to 23° C.
They were administered per os (p.o.) in a total volume of 0.01 ml per gram of mouse. The activity of the compound was determined by a variety of methods outlined in subsequent sections. Survival time was also recorded, and survival to day 30 post-infection was considered to be a cure.

The mark [4] stands for this setting: chloroquine-resistant K1 strain, 72 h incubation, read-out: IC50 (ng/ml) K1.
[5] abbreviates: chloroquine-sensitive NF54 strain, 72 h incubation, read-out: IC50 (ng/ml) NF54.
[6] abbreviates: K1, 72 h, read-out: IC50 (ng/ml) K1, chloroquine-resistant K1 strain, 72 h incubation.
Setting [7] is: NF54, 72 h, read-out: IC50 (ng/ml) NF54, chloroquine-sensitive NF54 strain, 72 h incubation.

The structures appear in SMILES notation. ≈ marks a conversion by molar mass, not a printed value. Like-named read-outs stand apart in the source and are kept apart here.

Turning to `O=C(O)CCC(=O)NC[C@H]1CC[C@]2(CC1)OO[C@]1(O2)C2CC3CC(C2)CC1C3` [OZ300], in test [1] (setting [4]), the IC50 is 71 ng/mL (≈ 180 nM). The IC50 in test [2] (setting [5]) came out at 97 ng/mL (≈ 247 nM). In test [3], the “Survival (days) 3 mg/kg SSV po” value stood at 7.0 days, the “Activity (%) 3 mg/kg SSV po” value is reported as 0%, the “Survival (days) 10 mg/kg SSV po” value is reported as 6.8 days and the “Activity (%) 10 mg/kg SSV po” value came out at 6%.

For `COC(=O)c1ncn(C[C@H]2CC[C@]3(CC2)OOC2(O3)C3CC4CC(C3)CC2C4)n1` (some centres unmarked) [OZ234], the IC50 in test [1] (setting [6]) came out at 3 ng/mL (≈ 7.44 nM). Further, the IC50 in test [2] (setting [7]) was 3.6 ng/mL (≈ 8.92 nM). In test [3], the “Survival (days) 10 mg/kg po” value was 6.0 days, the “Activity (%) 10 mg/kg po” value was 12%, the “Survival (days) 10 mg/kg SSV po” value is recorded as 6.0 days and the “Activity (%) 10 mg/kg SSV po” value was found to be 0%. Moreover, in test [3], the “Survival (days) 10 mg/kg sc” value stood at 6.3 days and the “Activity (%) 10 mg/kg sc” value was 0%.

As to `c1ccc(CNC[C@H]2CC[C@]3(CC2)OO[C@]2(O3)C3CC4CC(C3)CC2C4)nc1` [OZ292], the IC50 in test [1] (setting [4]) is 0.19 ng/mL (≈ 0.494 nM). The IC50 in test [2] (setting [5]) was determined as 0.26 ng/mL (≈ 0.676 nM). Besides, in test [3], the “Survival (days) 3 mg/kg SSV po” value amounted to 6.6 days, the “Activity (%) 3 mg/kg SSV po” value is given as 46%, the “Survival (days) 10 mg/kg SSV po” value is on record as 7.0 days and the “Activity (%) 10 mg/kg SSV po” value turned out to be 74%.

As to `O=C(NCCO)[C@H]1CC[C@]2(CC1)OOC1(O2)C2CC3CC(C2)CC1C3` (some centres unmarked) [OZ155], the IC50 in test [1] (setting [6]) was found to be 12 ng/mL (≈ 34.1 nM). In test [2] (setting [7]), the IC50 is greater than 10 ng/mL. Besides, in test [3], the “Survival (days) 10 mg/kg po” value is on record as 6.3 days, the “Activity (%) 10 mg/kg po” value came to 53%, the “Survival (days) 10 mg/kg SSV po” value was found to be 7.0 days and the “Activity (%) 10 mg/kg SSV po” value is recorded as 53%. Moreover, in test [3], the “Survival (days) 10 mg/kg sc” value was determined as 8.3 days and the “Activity (%) 10 mg/kg sc” value is recorded as 73%.

With `[N-]=[N+]=NCC[C@H]1CC[C@]2(CC1)OOC1(O2)C2CC3CC(C2)CC1C3` (some centres unmarked) [OZ228], in test [1] (setting [6]), the IC50 amounted to 2 ng/mL (≈ 6 nM). Besides, the IC50 in test [2] (setting [7]) stood at 2.1 ng/mL (≈ 6.3 nM). In test [3], the “Survival (days) 10 mg/kg po” value is 10.3 days, the “Activity (%) 10 mg/kg po” value was 99.94%, the “Survival (days) 10 mg/kg SSV po” value is 6.0 days and the “Activity (%) 10 mg/kg SSV po” value was found to be 28%. Moreover, in test [3], the “Survival (days) 10 mg/kg sc” value came to 14.0 days and the “Activity (%) 10 mg/kg sc” value worked out at 99.94%.

Regarding `CC(C)(C)CC(=O)N[C@H]1CC[C@]2(CC1)OOC1(O2)C2CC3CC(C2)CC1C3` (some centres unmarked) [OZ195], the values for the IC50 in test [1] (setting [6]) and in test [2] (setting [7]) were 2.2 ng/mL (≈ 5.83 nM) and 3.7 ng/mL (≈ 9.8 nM), respectively.

With `COC(=O)c1ncnn1C[C@H]1CC[C@]2(CC1)OOC1(O2)C2CC3CC(C2)CC1C3` (some centres unmarked) [OZ233], the IC50 in test [1] (setting [6]) amounted to 1.7 ng/mL (≈ 4.21 nM). For the same molecule, the IC50 in test [2] (setting [7]) worked out at 1.9 ng/mL (≈ 4.71 nM). Further, in test [3], the “Survival (days) 10 mg/kg po” value was 7.0 days, the “Activity (%) 10 mg/kg po” value was determined as 69%, the “Survival (days) 10 mg/kg SSV po” value worked out at 7.7 days and the “Activity (%) 10 mg/kg SSV po” value is on record as 76%. In addition, in test [3], the “Survival (days) 10 mg/kg sc” value is given as 8.3 days and the “Activity (%) 10 mg/kg sc” value worked out at 99.66%.

As for `NC(=O)CN(CC(N)=O)C[C@H]1CC[C@]2(CC1)OOC1(O2)C2CC3CC(C2)CC1C3` (some centres unmarked) [OZ236], the IC50 in test [1] (setting [6]) came out at 2 ng/mL (≈ 4.91 nM). Moreover, the IC50 in test [2] (setting [7]) turned out to be 2 ng/mL (≈ 4.91 nM). Besides, in test [3], the “Survival (days) 10 mg/kg po” value is on record as 6.3 days, the “Activity (%) 10 mg/kg po” value was 89%, the “Survival (days) 10 mg/kg SSV po” value turned out to be 7.7 days and the “Activity (%) 10 mg/kg SSV po” value is recorded as 86%. Moreover, in test [3], the “Survival (days) 10 mg/kg sc” value is on record as 7.7 days and the “Activity (%) 10 mg/kg sc” value turned out to be 98.61%.

Regarding `NCC[C@H]1CC[C@]2(CC1)OOC1(O2)C2CC3CC(C2)CC1C3` (some centres unmarked) [OZ229], the IC50 in test [1] (setting [6]) was determined as 0.24 ng/mL (≈ 0.781 nM); in test [2] (setting [7]) it was 0.23 ng/mL (≈ 0.748 nM).

As to `O=C1CCC(=O)N1C[C@H]1CC[C@]2(CC1)OOC1(O2)C2CC3CC(C2)CC1C3` (some centres unmarked) [OZ197], the IC50 in test [1] (setting [6]) was determined as 1 ng/mL (≈ 2.66 nM); in test [2] (setting [7]), 2 ng/mL (≈ 5.33 nM).

For `C1CCC(NC2CCC3(CC2)OOC2(O3)C3CC4CC(C3)CC2C4)CC1` (centres unmarked) [OZ162], the IC50 in test [1] (setting [6]) was determined as 0.5 ng/mL (≈ 1.38 nM); in test [2] (setting [7]), 0.71 ng/mL (≈ 1.96 nM).

Turning to `NC(=O)CCNC[C@H]1CC[C@]2(CC1)OO[C@]1(O2)C2CC3CC(C2)CC1C3` [OZ319], the IC50 was 0.41 ng/mL (≈ 1.12 nM) in test [1] (setting [6]) and 0.91 ng/mL (≈ 2.5 nM) in test [2] (setting [7]).

For the origin of these results see US6825230B2, “Spiro and dispiro 1,2,4-trixolane antimalarials” (Medicines for Malaria Venture MMV, priority 2002, dated 2004).
